# Experimental data as given in article PMC6946680, “Modulation of brain cation-Cl^− cotransport via the SPAK kinase inhibitor ZT-1a” (Nature Communications, 2020).
# Columns and labels:
# Test in all cases: Kinase profiling panel
# Assay type in all cases: biochemical
# BRK = tested on: BRK
# Procedure: (§1) Supplementary Table 2. ZT-1a kinase profiling data6.
# (§2) ZT-1a was tested at 10 and 1 µM against a panel of 140 recombinant kinases in an enzymatic
# (§3) activity-based assay performed by the International Centre for Kinase Profiling in the MRC
# (§4) Protein Phosphorylation and Ubiquitylation Unit. Values represent % residual kinase activity
# BRSK1 = tested on: BRSK1
# Procedure: as §1, §2, §3, §4
# CHK1 = tested on: CHK1
# Procedure: as §1, §2, §3, §4
# CK1γ2 = tested on: CK1γ2
# Procedure: as §1, §2, §3, §4
# CLK2 = tested on: CLK2
# Procedure: as §1, §2, §3, §4
# CSK = tested on: CSK
# Procedure: as §1, §2, §3, §4
# EPH-A2 = tested on: EPH-A2
# Procedure: as §1, §2, §3, §4
# EPH-A4 = tested on: EPH-A4
# Procedure: as §1, §2, §3, §4
# ERK2 = tested on: ERK2
# Procedure: as §1, §2, §3, §4
# ERK8 = tested on: ERK8
# Procedure: as §1, §2, §3, §4
# GCK = tested on: GCK
# Procedure: as §1, §2, §3, §4
# GSK3b = tested on: GSK3b
# Procedure: as §1, §2, §3, §4
# HER4 = tested on: HER4
# Procedure: as §1, §2, §3, §4
# HIPK3 = tested on: HIPK3
# Procedure: as §1, §2, §3, §4
# IKKe = tested on: IKKe
# Procedure: as §1, §2, §3, §4
# JAK2 = tested on: JAK2
# Procedure: as §1, §2, §3, §4
# MKK6 = tested on: MKK6
# Procedure: as §1, §2, §3, §4
# MLK1 = tested on: MLK1
# Procedure: as §1, §2, §3, §4
# MLK3 = tested on: MLK3
# Procedure: as §1, §2, §3, §4
# MNK2 = tested on: MNK2
# Procedure: as §1, §2, §3, §4
# MPSK1 = tested on: MPSK1
# Procedure: as §1, §2, §3, §4
# NEK2a = tested on: NEK2a
# Procedure: as §1, §2, §3, §4
# NEK6 = tested on: NEK6
# Procedure: as §1, §2, §3, §4
# PAK6 = tested on: PAK6
# Procedure: as §1, §2, §3, §4
# PDGFRA = tested on: PDGFRA
# Procedure: as §1, §2, §3, §4
# PIM1 = tested on: PIM1
# Procedure: as §1, §2, §3, §4
# PIM2 = tested on: PIM2
# Procedure: as §1, §2, §3, §4
# PKBb = tested on: PKBb
# Procedure: as §1, §2, §3, §4
# PKCγ = tested on: PKCγ
# Procedure: as §1, §2, §3, §4
# PRAK = tested on: PRAK
# Procedure: as §1, §2, §3, §4
# RSK1 = tested on: RSK1
# Procedure: as §1, §2, §3, §4
# RSK2 = tested on: RSK2
# Procedure: as §1, §2, §3, §4
# S6K1 = tested on: S6K1
# Procedure: as §1, §2, §3, §4
# SGK1 = tested on: SGK1
# Procedure: as §1, §2, §3, §4
# SIK3 = tested on: SIK3
# Procedure: as §1, §2, §3, §4
# SRPK1 = tested on: SRPK1
# Procedure: as §1, §2, §3, §4
# SmMLCK = tested on: SmMLCK
# Procedure: as §1, §2, §3, §4
# TAK1 = tested on: TAK1
# Procedure: as §1, §2, §3, §4
# TGFBR1 = tested on: TGFBR1
# Procedure: as §1, §2, §3, §4
# TIE2 = tested on: TIE2
# Procedure: as §1, §2, §3, §4
# TSSK1 = tested on: TSSK1
# Procedure: as §1, §2, §3, §4
# ULK2 = tested on: ULK2
# Procedure: as §1, §2, §3, §4
# ZAP70 = tested on: ZAP70
# Procedure: as §1, §2, §3, §4
# p38a MAPK = tested on: p38a MAPK
# Procedure: as §1, §2, §3, §4
smiles,measurement,setting,value
"Cc1cc(C(C#N)c2ccc(Cl)cc2)c(Cl)cc1NC(=O)c1cc(Cl)ccc1O (stereo not shown) [ZT-1a, 5-chloro-N-(5-chloro-4-((4-chlorophenyl)(cyano)methyl)-2-methylphenyl)-2-hydroxybenzamide]",% residual kinase activity,BRK; 1 µM,116±12%
same,% residual kinase activity,BRK; 10 µM,103±2%
same,% residual kinase activity,BRSK1; 1 µM,108±14%
same,% residual kinase activity,BRSK1; 10 µM,88±22%
same,% residual kinase activity,CHK1; 1 µM,111±11%
same,% residual kinase activity,CHK1; 10 µM,109±8%
same,% residual kinase activity,CK1γ2; 1 µM,112±12%
same,% residual kinase activity,CK1γ2; 10 µM,124±23%
same,% residual kinase activity,CLK2; 1 µM,68±12%
same,% residual kinase activity,CLK2; 10 µM,33±45%
same,% residual kinase activity,CSK; 1 µM,96±8%
same,% residual kinase activity,CSK; 10 µM,106±29%
same,% residual kinase activity,EPH-A2; 1 µM,89±23%
same,% residual kinase activity,EPH-A2; 10 µM,78±11%
same,% residual kinase activity,EPH-A4; 1 µM,59±33%
same,% residual kinase activity,EPH-A4; 10 µM,90±11%
same,% residual kinase activity,ERK2; 1 µM,111±25%
same,% residual kinase activity,ERK2; 10 µM,75±3%
same,% residual kinase activity,ERK8; 1 µM,104±11%
same,% residual kinase activity,ERK8; 10 µM,63±3%
same,% residual kinase activity,GCK; 1 µM,112±4%
same,% residual kinase activity,GCK; 10 µM,97±3%
same,% residual kinase activity,GSK3b; 1 µM,39±4%
same,% residual kinase activity,GSK3b; 10 µM,38±12%
same,% residual kinase activity,HER4; 1 µM,85±8%
same,% residual kinase activity,HER4; 10 µM,84±1%
same,% residual kinase activity,HIPK3; 1 µM,84±3%
same,% residual kinase activity,HIPK3; 10 µM,76±2%
same,% residual kinase activity,IKKe; 1 µM,87±13%
same,% residual kinase activity,IKKe; 10 µM,59±5%
same,% residual kinase activity,JAK2; 1 µM,125±6%
same,% residual kinase activity,JAK2; 10 µM,123±8%
same,% residual kinase activity,MKK6; 1 µM,102±12%
same,% residual kinase activity,MKK6; 10 µM,82±16%
same,% residual kinase activity,MLK1; 1 µM,94±4%
same,% residual kinase activity,MLK1; 10 µM,81±21%
same,% residual kinase activity,MLK3; 1 µM,119±11%
same,% residual kinase activity,MLK3; 10 µM,114±3%
same,% residual kinase activity,MNK2; 1 µM,100±7%
same,% residual kinase activity,MNK2; 10 µM,105±3%
same,% residual kinase activity,MPSK1; 1 µM,110±6%
same,% residual kinase activity,MPSK1; 10 µM,105±2%
same,% residual kinase activity,NEK2a; 1 µM,85±12%
same,% residual kinase activity,NEK2a; 10 µM,91±6%
same,% residual kinase activity,NEK6; 1 µM,107±6%
same,% residual kinase activity,NEK6; 10 µM,108±1%
same,% residual kinase activity,PAK6; 1 µM,69±2%
same,% residual kinase activity,PAK6; 10 µM,75±4%
same,% residual kinase activity,PDGFRA; 1 µM,84±11%
same,% residual kinase activity,PDGFRA; 10 µM,80±7%
same,% residual kinase activity,PIM1; 1 µM,108±19%
same,% residual kinase activity,PIM1; 10 µM,101±8%
same,% residual kinase activity,PIM2; 1 µM,93±5%
same,% residual kinase activity,PIM2; 10 µM,93±3%
same,% residual kinase activity,PKBb; 1 µM,76±14%
same,% residual kinase activity,PKBb; 10 µM,51±13%
same,% residual kinase activity,PKCγ; 1 µM,133±11%
same,% residual kinase activity,PKCγ; 10 µM,120±8%
same,% residual kinase activity,PRAK; 1 µM,78±13%
same,% residual kinase activity,PRAK; 10 µM,41±7%
same,% residual kinase activity,RSK1; 1 µM,95±2%
same,% residual kinase activity,RSK1; 10 µM,87±4%
same,% residual kinase activity,RSK2; 1 µM,116±5%
same,% residual kinase activity,RSK2; 10 µM,101±3%
same,% residual kinase activity,S6K1; 1 µM,119±10%
same,% residual kinase activity,S6K1; 10 µM,81±2%
same,% residual kinase activity,SGK1; 1 µM,73±14%
same,% residual kinase activity,SGK1; 10 µM,58±5%
same,% residual kinase activity,SIK3; 1 µM,104±9%
same,% residual kinase activity,SIK3; 10 µM,88±0%
same,% residual kinase activity,SRPK1; 1 µM,104±5%
same,% residual kinase activity,SRPK1; 10 µM,73±20%
same,% residual kinase activity,SmMLCK; 1 µM,99±3%
same,% residual kinase activity,SmMLCK; 10 µM,98±9%
same,% residual kinase activity,TAK1; 1 µM,117±22%
same,% residual kinase activity,TAK1; 10 µM,103±5%
same,% residual kinase activity,TGFBR1; 1 µM,63±9%
same,% residual kinase activity,TGFBR1; 10 µM,77±5%
same,% residual kinase activity,TIE2; 1 µM,139±74%
same,% residual kinase activity,TIE2; 10 µM,73±11%
same,% residual kinase activity,TSSK1; 1 µM,99±2%
same,% residual kinase activity,TSSK1; 10 µM,74±6%
same,% residual kinase activity,ULK2; 1 µM,110±11%
same,% residual kinase activity,ULK2; 10 µM,49±9%
same,% residual kinase activity,ZAP70; 1 µM,120±1%
same,% residual kinase activity,ZAP70; 10 µM,97±9%
same,% residual kinase activity,p38a MAPK; 1 µM,128±7%
same,% residual kinase activity,p38a MAPK; 10 µM,113±2%
